{
  "source": "patent US20260103458A1",
  "about": "“Inhibitors of CDK8 and CDK19” (University of Dundee, priority 2022, published 2026)",
  "key": {"[1]": {"molecular_target": "T1, CDK8 (Homo sapiens, UniProt P49336)", "T1 construct": "made in house; host or cells: E. coli BL21-derived host (T7 phage display) or HEK-293 cells", "T1 sequence (P49336 whole entry)": "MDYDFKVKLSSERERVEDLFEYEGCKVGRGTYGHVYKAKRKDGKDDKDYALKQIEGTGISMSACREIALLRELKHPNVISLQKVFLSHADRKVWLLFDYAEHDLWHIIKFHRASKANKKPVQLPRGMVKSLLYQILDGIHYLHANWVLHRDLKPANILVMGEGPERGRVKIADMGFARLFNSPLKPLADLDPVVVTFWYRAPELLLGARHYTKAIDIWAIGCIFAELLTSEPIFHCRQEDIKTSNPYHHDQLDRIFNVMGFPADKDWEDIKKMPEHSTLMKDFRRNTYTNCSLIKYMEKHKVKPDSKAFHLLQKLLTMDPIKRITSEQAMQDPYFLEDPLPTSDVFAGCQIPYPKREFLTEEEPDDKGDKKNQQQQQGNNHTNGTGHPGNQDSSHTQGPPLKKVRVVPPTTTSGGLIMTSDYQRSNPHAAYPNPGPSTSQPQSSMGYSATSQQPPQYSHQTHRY", "assay": "Kinase competition binding assay (Kd, qPCR readout), CDK8", "conditions": "in vitro binding; 11-point 3-fold dilution series; read-out: pKd (CDK8) (converted)", "protocol": "(§1) Compounds 1 to 11 were tested for their in vitro binding activity against CDK8 and CDK19.\n(§2) Kinase assays: Kinase-tagged T7 phage strains were prepared in an E. coli host derived from the BL21 strain. E. coli were grown to log-phase and infected with T7 phage and incubated with shaking at 32° C. until lysis. The lysates were centrifuged and filtered to remove cell debris. The remaining kinases were produced in HEK-293 cells and subsequently tagged with DNA for qPCR detection. Streptavidin-coated magnetic beads were treated with biotinylated small molecule ligands for 30 minutes at room temperature to generate affinity resins for kinase assays. The liganded beads were blocked with excess biotin and washed with blocking buffer (SeaBlock (Pierce), 1% BSA, 0.05% Tween 20, 1 mM DTT) to remove unbound ligand and to reduce non-specific binding. Binding reactions were assembled by combining kinases, liganded affinity beads, and test compounds in 1× binding buffer (20% SeaBlock, 0.17×PBS, 0.05% Tween 20, 6 mM DTT). Test compounds were prepared as 111× stocks in 100% DMSO. Kds were determined using an 11-point 3-fold compound dilution series with three DMSO control points. All compounds for Kd measurements are distributed by acoustic transfer (non-contact dispensing) in 100% DMSO. The compounds were then diluted directly into the assays such that the final concentration of DMSO was 0.9%. All reactions performed in polypropylene 384-well plate. Each was a final volume of 0.02 ml. The assay plates were incubated at room temperature with shaking for 1 hour and the affinity beads were washed with wash buffer (1×PBS, 0.05% Tween 20). The beads were then re-suspended in elution buffer (1×PBS, 0.05% Tween 20, 0.5 μM nonbiotinylated affinity ligand) and incubated at room temperature with shaking for 30 minutes. The kinase concentration in the eluates was measured by qPCR.\n(§3) Compound handling: An 11-point 3-fold serial dilution of each test compound was prepared in 100% DMSO at 100× final test concentration and subsequently diluted to 1× in the assay (final DMSO concentration=1%). Most Kds were determined using a compound top concentration=30,000 nM. If the initial Kd determined was <0.5 nM (the lowest concentration tested), the measurement was repeated with a serial dilution starting at a lower top concentration.\n(§4) Binding constants: Binding constants (Kds) were calculated with a standard dose-response curve using the Hill equation: […]\n(§5) The Hill Slope was set to −1.\n(§6) Curves were fitted using a non-linear least square fit with the Levenberg-Marquardt algorithm."}, "[2]": {"molecular_target": "T2, CDK19 (Homo sapiens, UniProt Q9BWU1)", "T2 construct": "made in house; host or cells: E. coli BL21-derived host (T7 phage display) or HEK-293 cells", "T2 sequence (Q9BWU1 whole entry)": "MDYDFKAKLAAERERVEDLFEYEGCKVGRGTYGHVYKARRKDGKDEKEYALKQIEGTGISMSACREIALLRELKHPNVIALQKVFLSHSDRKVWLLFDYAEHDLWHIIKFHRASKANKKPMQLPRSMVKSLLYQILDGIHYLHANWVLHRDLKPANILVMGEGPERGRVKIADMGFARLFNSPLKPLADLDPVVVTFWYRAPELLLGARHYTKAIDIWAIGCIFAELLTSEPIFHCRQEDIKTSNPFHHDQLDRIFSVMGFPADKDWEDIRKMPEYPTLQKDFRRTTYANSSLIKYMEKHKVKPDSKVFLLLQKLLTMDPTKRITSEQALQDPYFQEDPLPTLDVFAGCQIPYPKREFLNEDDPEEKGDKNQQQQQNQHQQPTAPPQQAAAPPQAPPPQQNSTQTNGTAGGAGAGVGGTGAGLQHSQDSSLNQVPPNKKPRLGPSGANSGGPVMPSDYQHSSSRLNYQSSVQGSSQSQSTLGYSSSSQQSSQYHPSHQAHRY", "assay": "Kinase competition binding assay (Kd, qPCR readout), CDK19", "conditions": "in vitro binding; 11-point 3-fold dilution series; read-out: pKd (CDK19) (converted)", "protocol": "as §1, §2, §3, §4, §5, §6"}},
  "data": [
    {"smiles": "O=C(NC1CCN(c2snc3ccccc23)CC1)c1cn(CC2COC2)cn1", "note": "[Compound 10, N-(1-(benzo[c]isothiazol-3-yl)piperidin-4-yl)-1-(oxetan-3-ylmethyl)-1H-imidazole-4-carboxamide]", "values": [
      {"measurement": "Kd", "setting": "[1]", "result": 316, "unit": "nM"},
      {"measurement": "Kd", "setting": "[2]", "result": 100, "unit": "nM"}
    ]},
    {"smiles": "O=C(NC1CCN(c2snc3ccc(F)cc23)CC1)c1cn(Cc2cnccn2)cn1", "note": "[Compound 6, N-(1-(5-fluorobenzo[c]isothiazol-3-yl)piperidin-4-yl)-1-(pyrazin-2-ylmethyl)-1H-imidazole-4-carboxamide]", "values": [
      {"measurement": "Kd", "setting": "[1]", "result": 25.1, "unit": "nM"},
      {"measurement": "Kd", "setting": "[2]", "result": 20, "unit": "nM"}
    ]},
    {"smiles": "CN(C)CCn1cnc(C(=O)NC2CCN(c3snc4ccccc34)CC2)c1", "note": "[Compound 9, N-(1-(benzo[c]isothiazol-3-yl)piperidin-4-yl)-1-(2-(dimethylamino)ethyl)-1H-imidazole-4-carboxamide]", "values": [
      {"measurement": "Kd", "setting": "[1]", "result": 3980, "unit": "nM"},
      {"measurement": "Kd", "setting": "[2]", "result": 1260, "unit": "nM"}
    ]},
    {"smiles": "O=C(NC1CCN(c2snc3ccccc23)CC1)c1cn(Cc2ncccn2)cn1", "note": "[Compound 11, N-(1-(benzo[c]isothiazol-3-yl)piperidin-4-yl)-1-(pyrimidin-2-ylmethyl)-1H-imidazole-4-carboxamide]", "values": [
      {"measurement": "Kd", "setting": "[1]", "result": 501, "unit": "nM"},
      {"measurement": "Kd", "setting": "[2]", "result": 100, "unit": "nM"}
    ]},
    {"smiles": "CNC1CCN(c2snc3ccccc23)CC1", "note": "[Compound 1, 1-(benzo[c]isothiazol-3-yl)-N-methylpiperidin-4-amine]", "values": [
      {"measurement": "Kd", "setting": "[1]", "result": 31600, "unit": "nM"},
      {"measurement": "Kd", "setting": "[2]", "result": 31600, "unit": "nM"}
    ]},
    {"smiles": "CN(C)C(=O)Cn1cnc(C(=O)NC2CCN(c3snc4ccccc34)CC2)c1", "note": "[Compound 7, N-(1-(benzo[c]isothiazol-3-yl)piperidin-4-yl)-1-(2-(dimethylamino)-2-oxoethyl)-1H-imidazole-4-carboxamide]", "values": [
      {"measurement": "Kd", "setting": "[1]", "result": 631, "unit": "nM"},
      {"measurement": "Kd", "setting": "[2]", "result": 200, "unit": "nM"}
    ]},
    {"smiles": "CC(=O)NC1CCN(c2snc3ccccc23)CC1", "note": "[Compound 2, N-(1-(benzo[c]isothiazol-3-yl)piperidin-4-yl)acetamide]", "values": [
      {"measurement": "Kd", "setting": "[1]", "result": 10000, "unit": "nM"},
      {"measurement": "Kd", "setting": "[2]", "result": 6310, "unit": "nM"}
    ]},
    {"smiles": "CN(C)C(=O)Cn1cnc(C(=O)NC2CCN(c3snc4ccc(F)cc34)CC2)c1", "note": "[Compound 8, 1-(2-(dimethylamino)-2-oxoethyl)-N-(1-(5-fluorobenzo[c]isothiazol-3-yl)piperidin-4-yl)-1H-imidazole-4-carboxamide]", "values": [
      {"measurement": "Kd", "setting": "[1]", "result": 501, "unit": "nM"},
      {"measurement": "Kd", "setting": "[2]", "result": 316, "unit": "nM"}
    ]},
    {"smiles": "Cn1cnc(C(=O)NC2CCN(c3snc4ccccc34)CC2)c1", "note": "[Compound 3, N-(1-(benzo[c]isothiazol-3-yl)piperidin-4-yl)-1-methyl-1H-imidazole-4-carboxamide]", "values": [
      {"measurement": "Kd", "setting": "[1]", "result": 398, "unit": "nM"},
      {"measurement": "Kd", "setting": "[2]", "result": 158, "unit": "nM"}
    ]},
    {"smiles": "O=C(NC1CCN(c2snc3ccccc23)CC1)c1cn(Cc2cnccn2)cn1", "note": "[Compound 5, N-(1-(benzo[c]isothiazol-3-yl)piperidin-4-yl)-1-(pyrazin-2-ylmethyl)-1H-imidazole-4-carboxamide]", "values": [
      {"measurement": "Kd", "setting": "[1]", "result": 200, "unit": "nM"},
      {"measurement": "Kd", "setting": "[2]", "result": 79.4, "unit": "nM"}
    ]},
    {"smiles": "Cn1cnc(C(=O)NC2CCN(c3snc4ccc(F)cc34)CC2)c1", "note": "[Compound 4, N-(1-(5-fluorobenzo[c]isothiazol-3-yl)piperidin-4-yl)-1-methyl-1H-imidazole-4-carboxamide]", "values": [
      {"measurement": "Kd", "setting": "[1]", "result": 63.1, "unit": "nM"},
      {"measurement": "Kd", "setting": "[2]", "result": 50.1, "unit": "nM"}
    ]}
  ]
}
